From patent EP0493782A2, “Novel dihydropyridine amides, process for their preparation and drugs containing them” (BAYER AG, priority 1991, dated 1992)

Tested on: ANP-System
Assay: Acute hypervolaemia model in the rat (volume load, urine collected over one hour)
Type: in vivo
Settings: Ratte; for Steigerung der Na⁺-Ausscheidung: 10 mg/kg p.o. in Tylose-Suspension, acute volume load by 15 ml/kg physiological saline into the tail vein, urine collected over one hour
Source text: Die ausgewählten erfindungsgemäßen Verbindungen zeigen ein nicht vorhersehbares, wertvolles pharmakologisches Wirkspektrum. Im Vergleich zu strukturähnlichen, bekannten Dihydropyridinen wie z.B. in DOS 2 228 377 beschriebenen Vertretern, zeigen die erfindungsgemäßen Verbindungen sowohl quantitativ als auch qualitativ ein anderes Wirkungsspektrum. Neben ihrer calciumantagonistischen Wirkung steigern sie die ANP-abhängige Natriurese bei Stimulation des ANP-Systems durch Volumenbelastung. Diese zusätzliche Wirkkomponente wurde in einem Modell der akuten Hypervolämie an der Ratte nachgewiesen: Die Testsubstanzen wurden oral in Tylose-Suspension verabreicht. Durch Injektion von 15 ml/kg physiologischer Kochsalzlösung in die Schwanzvene wurde eine akute Volumenbelastung ausgelöst und anschließend der Urin über eine Stunde gesammelt. Unerwarteterweise verstärken die erfindungsgemäßen Verbindungen die Natriumausscheidung. Gleichzeitig wird die Ausscheidung von cGMP, das einen spezifischen Marker für die Aktivierung des ANP-Systems darstellt, erhöht (z.B. um 100 % bei Beispiel 19).

Structure (SMILES)	Steigerung der Na⁺-Ausscheidung [%]	Ausscheidung von cGMP erhöht (oral in Tylose-Suspension, acute volume load by 15 ml/kg saline i.v., urine over one hour, dose not given) [%]
COC(=O)C1=C(C)NC(C)=C(C(=O)NC2CC2)C1c1ccccc1OCCCOc1ccccc1 (stereo not shown) [Beispiel 2]	80	
COC(=O)C1=C(C)NC(C)=C(C(=O)NC2CCCC2)C1c1ccccc1OC (stereo not shown) [Beispiel 11]	95	
COC(=O)C1=C(C)NC(C)=C(C(=O)NC2CC2)C1c1ccccc1OC(F)(F)F (stereo not shown) [Beispiel 19]	100	100
